According to patent US20220008406A1, “USE OF NUCIFERIN AND LOTUS LEAF EXTRACT IN THE PREPARATION OF A MEDICAMENT FOR TREATING ATROPHIC GASTRITIS AND/OR BLOCKING TRANSFORMATION OF GASTRITIS INTO CANCER” (priority 2018, published 2022):
Entries after “also recorded” stand apart in the source; their conditions may differ.

Tests used:
[1] = test system: rats with chronic atrophic gastritis; test: Nuciferine treatment of rats with chronic atrophic gastritis with intestinal metaplasia induced by sodium deoxycholate and ammonia water; assay type: in vivo, SD rats; settings: for pathological state of chronic atrophic gastritis, HE-stained gastric tissue sections: 4 weeks after 8 weeks modeling, vs model group
Source text: An animal model of chronic atrophic gastritis induced by sodium deoxycholate and ammonia water was selected. After the model was successfully established, celecoxib and nuciferine were given by gavage.
The experiment: The experimental animals were from Beijing Weitong Lihua Laboratory Animal Technology Co., Ltd. Thirty SD rats with a specific pathogen free (SPF) grade of 200±20 g were selected, with half males and half males, and randomly divided into […]: normal control group, chronic atrophic gastritis (CAG) model group, the positive drug celecoxib intervention group and the nuciferine intervention group, with 6 rats in each group. The nuciferine was purchased from Chengdu Refines Biotechnology Co., Ltd., with a specification of 5 g and a purity of over 98%. Celecoxib was purchased from Beijing Bailingwei Technology Co., Ltd., with brand J&K, a specification of 1 g, and purity above 98%. Sodium deoxycholate was purchased from Amresco, USA, with a specification of 100 g. The rats in the model group, celecoxib intervention group and nuciferine intervention group were given sodium deoxycholate solution and ammonia to induce chronic atrophic gastritis. 20 mmol/L sodium deoxycholate was administered […] at a dose of 6 ml/kg, twice a week on an empty stomach, 0.1% ammonia water was drunk freely, and the model was continuously modeled for 8 weeks. […] After modeling, the celecoxib group and the nuciferine intervention group were given celecoxib 10 mg/kg, nuciferine 40 mg/kg, and 10 mg/kg by gavage administration, once a day. During the experiment, the rats' body weight and food intake were observed.
At the end of the dosing experiment, after the rats were sacrificed by dislocation, the stomach tissue was quickly taken out and prepared for pathological sectioning. The obtained gastric tissue was cut along the greater curvature of the stomach, washed with saline, blotted dry with filter paper, and fixed with formalin solution (10% formaldehyde solution). The sections were embedded, dehydrated by alcohol, and then made transparent with xylene. And then the sections were waxed and embed in paraffin. In the staining stage, the sections were soaked in xylene solution for 10 minutes each time for 3 times; then they were soaked in absolute ethanol and rinsed in tap water. Finally, the sections were stained with hematoxylin (to stain the nucleus) and eosin (to stain the cytoplasm), and the sections were mounted with neutral gum. Finally, the pathological changes of rat stomach tissue were observed under light microscope.

[2] = test system: gastric mucosal injury model rats; test: Protection against gastric mucosal damage induced by absolute ethanol in rats; assay type: in vivo, SD rats; settings: for congestion and bleeding of the gastric mucosa: then 1.0 mL absolute ethanol
Source text: After continuous administration of […] and […] in rats, gastric mucosal damage was induced by absolute ethanol, and the gastric mucosal damage was observed under a microscope after dissection.
The experimental: The experimental animals were from Beijing Sibeifu Biotechnology Co., Ltd., and 30 SD rats of 200±20 g specific pathogen free (SPF) grade, male, were chosen and randomly divided into 5 groups: normal control group, the gastric mucosal injury model group, the nuciferine low-dose group, the nuciferine high-dose group and the lotus leaf extract group, as shown in Table 3. The low-dose nuciferine group, the high-dose nuciferine group and the lotus leaf extract group were administered intragastrically for 14 days, once a day. The nuciferine was purchased from Chengdu Refines Biotechnology Co., Ltd., with a specification of 5 g and a purity of over 98%. The lotus leaf extract was purchased from Hebei Chenguang Biotechnology Group Handan Co., Ltd., with a specification of 1 kg and a content of nuciferine of more than 0.4%. 1 hour after the rats in the low-dose nuciferine group, the high-dose nuciferine group and the lotus leaf extract group were given continuous administration, the rats in the control group and the model group were strictly fasted for 24 hours (with water available), and medicine was also prohibited during this period. Rats in the model group, the low-dose nuciferine group, the high-dose nuciferine group, and the lotus leaf extract group were given 1.0 mL of absolute ethanol per rat by intragastric administration; 1 hour after the completion of the modeling, the rats were sacrificed by blood sampling from the abdominal aorta, and the stomach was taken by cutting the abdomen, was injected with 10% formaldehyde solution, and fixed for 20 minutes, then the stomach was cut along the greater curvature of the same and was washed to remove the stomach contents, and a general observation under a dissecting microscope was conducted and the length of injury (mm) was measured.

[3] = test system: Drosophila gastrointestinal stem cells; test: DSS-induced abnormal proliferation of Drosophila gastrointestinal stem cells (esg-GFP); assay type: in vivo
Source text: The gastrointestinal tumorigenesis model reported in the publication “Cell Stem Cell” of “Cell” Press was select. Dextran sulfate sodium (DSS) was used to induce abnormal proliferation of Drosophila gastrointestinal stem cells to simulate the process of tumorigenesis. During the modeling period, nuciferine and lotus leaf extract were given.
The experimental: Dextran sulfate sodium (DSS) was used to induce abnormal proliferation of drosophila gastrointestinal stem cells to simulate the process of tumorigenesis. The experimental drosophila were esg-GFP purchased from Tsinghua Drosophila Center. GFP (green fluorescent protein driven by esg-Ga14) can specifically label intestinal stem cells and enteroblasts. A solution containing 20% sucrose, 3% DSS (average molecular weight 40 kDa) and 0.5% dimethyl sulfoxide (DMSO) was prepared, and the solution was mixed with the drosophila food, and the mixture was placed half-dry and was then used to feed the drosophila to perform modeling. During the modeling period, different groups were given nuciferine and lotus leaf extract. The nuciferine was purchased from Chengdu Refines Biotechnology Co., Ltd., with a specification of 5 g and a purity of over 98%. The lotus leaf extract was purchased from Hebei Chenguang Biotechnology Group Handan Co., Ltd., with a specification of 100 g and a nuciferine content of more than 0.4%. Sodium dextran sulfate was purchased from Beijing Zhongkekeao Biotechnology Co., Ltd. with a brand of mp and a specification of 50 g. The dimethyl sulfoxide was purchased from Amresco, USA, with a specification of 500 ml.
1) The Nuciferine Experiment Groups
Model control group: medium+0.5% DMSO+3% DSS
Low-dose nuciferine group: medium+0.5% DMSO+3% DSS+nuciferine 100 μM
High-dose nuciferine group: medium+0.5% DMSO+3% DSS+nuciferine 200 μM
2) The Lotus Leaf Extract Experiment Groups
Lotus leaf extract low-dose group: medium+0.5% DMSO+3% DSS+lotus leaf extract (containing 100 μM […])
Lotus leaf extract medium-dose group: medium+0.5% DMSO+3% DSS+lotus leaf extract (containing 200 μM […]) […]

MNNG-GES-1 cells = test: MTT assay on MNNG-stimulated GES-1 cell model of transformation of gastritis to gastric cancer; assay type: cell-based, human; settings: nuciferine 48 h
Source text: The gastritis cancer transformation model used in this example formed by human gastric epithelial cells (GES-1) induced by chemical mutagens N-methyl N-nitronitrosoguanidine (MNNG) was as reported in the literature. The nuciferine was purchased from Chengdu Refines Biotechnology Co., Ltd., with a specification of 1 g and a purity of over 98%. The MNNG was purchased from Beijing Baiyiyi Chuang Biotechnology Co., Ltd., with a brand Tixiai and a specification of 5 g. The GES-1 cells were purchased from Shanghai Xuran Biotechnology Co., Ltd. The phosphate buffered saline (PBS) was purchased from Amresco, USA, with a specification of 10 L. The dimethyl sulfoxide (DMSO) was purchased from Amresco, USA, with a specification of 500 ml. The fetal bovine serum (FBS) was purchased from Amresco, USA, with a specification of 100 ml. The 3-(4,5-Dimethylthiazole-2)-2,5-diphenyltetrazolium bromide (MTT) was purchased from Shanghai Biyuntian Biotechnology Co., Ltd., with a specification of 500 mg.
GES-1 cells was planted in a 96-well plate (8000 cells/well, leave a row of blank holes, discard the edge holes and add an equal volume of PBS to reduce evaporation), the old solution was aspirated the next day, and 10% FBS containing no double antibody medium was added, […] MNNG was added to induce stimulation, culturing for 24 h in the dark, and discarding the culture medium containing MNNG. […]

colon cancer = settings: people who take aspirin for a long time; cited from earlier work

## COc1cc2c3c(c1OC)-c1ccccc1C[C@H]3N(C)CC2 [nuciferine]
[1]; 10 mg/kg (celecoxib group; low-dose nuciferine group) by gavage once a day
  pathological state of chronic atrophic gastritis, HE-stained gastric tissue sections: reduced to the state of chronic non-atrophic gastritis
[1]; 40 mg/kg (high-dose nuciferine group) by gavage once a day
  pathological state of chronic atrophic gastritis, HE-stained gastric tissue sections: best effect; also recorded: significantly reduced
[1]; CAG model rats, therapeutic administration, dose groups not distinguished
  weight of rats: increased the weight of rats
[1]; intervention groups, doses not distinguished
  treatment of chronic atrophic gastritis and intestinal metaplasia of rats (pathological slices): effectively treated
[2]; doses not distinguished
  gastric mucosal injury of rats compared with the model group: significantly improved; also recorded: improved compared with the model group
[2]; nuciferine high-dose 40 mg/kg intragastric once a day 14 days
  congestion and bleeding of the gastric mucosa: no congestion and bleeding
[2]; nuciferine low-dose 20 mg/kg intragastric once a day 14 days
  congestion and bleeding of the gastric mucosa: reduced
[3]; doses not distinguished
  abnormal proliferation of Drosophila gastrointestinal stem cells and mucosal ulceration: effectively inhibited
[3]; high-dose nuciferine 200 μM in medium + 0.5% DMSO + 3% DSS, 3-5 days at 25° C.
  proliferation of drosophila gastrointestinal stem cells: returned to normal
[3]; low-dose nuciferine 100 μM in medium + 0.5% DMSO + 3% DSS, 3-5 days at 25° C.
  abnormal proliferation of drosophila gastrointestinal stem cells: reduced
MNNG-GES-1 cells; Homo sapiens, GES1, GES-1 cells stimulated with MNNG 24 h, read-out: half inhibitory concentration (IC50) on cells transformed from gastritis to gastric cancer
  IC50: 92.7 µM
MNNG-GES-1 cells; P<0.05
  viability of MNNG-GES-1 cells: significantly inhibiting

## CC(=O)Oc1ccccc1C(=O)O [aspirin]
Colon cancer
  reduction of incidence of colon cancer: 24%
